Measurements from patent US20080280868A1, “Pyridine Derivatives and Their Use as Cb2 Receptor Modulators” (priority 2004, published 2008).
pEC50: −log10 of the molar value. Structures can show the parent of a compound that is named as a salt. Where two headings read alike, the source gives them in different places.

Target: T1, human cannabinoid CB2 receptor (Homo sapiens, UniProt P34972)
T1 construct: expressed in transfected cells; host or cells: Saccharomyces cerevisiae strain MMY23 (cassette integrated at the ura3 locus, GPD promoter)
Test: Cannabinoid CB2 receptor agonist activity in yeast cells (FDGlu fluorescence)
Type: cell-based
Conditions: for Emax: read-out: efficacy value (Emax) at the cloned human cannabinoid CB2 receptor
Description: The cannabinoid CB2 receptor agonist activity of the compounds of formula (I) was determined in accordance with the following experimental method.
Yeast (Saccharomyces cerevisiae) cells expressing the human cannabinoid CB2 receptor were generated by integration of an expression cassette into the ura3 chromosomal locus of yeast strain MMY23. This cassette consisted of DNA sequence encoding the human CB2 receptor flanked by the yeast GPD promoter to the 5′ end of CB2 and a yeast transcriptional terminator sequence to the 3′ end of CB2. MMY23 expresses a yeast/mammalian chimeric G-protein alpha subunit in which the C-terminal 5 amino acids of Gpal are replaced with the C-terminal 5 amino acids of human Gαi3 (as described in Brown et al. (2000), Yeast 16:11-22).
Agonists were prepared as 10 mM stocks in DMSO. […] Agonist solutions in DMSO (1% final assay volume) were transferred into black, clear bottom, microtitre plates from NUNC (96- or 384-well). Cells were suspended at a density of 0.2 OD600/ml in SC media lacking histidine, uracil, tryptophan, adenine and leucine and supplemented with 10 mM 3-aminotriazole, 0.1M sodium phosphate pH 7.0, and […] fluorescein di-β-D-glucopyranoside (FDGlu). […] After incubation at 30° C. for 24 hours, fluorescence resulting from degradation of FDGlu to fluorescein due to exoglucanase, an endogenous yeast enzyme produced during agonist-stimulated cell growth, was determined using a Spectrofluor microtitre plate reader (Tecan; excitation wavelength: 485 nm; emission wavelength: 535 nm). Fluorescence was plotted against compound concentration and iteratively curve fitted using a four parameter fit to generate a concentration effect value. Efficacy (Emax) was calculated from the equation
Equieffective molar ratio (EMR) values were calculated from the equation

[1] = yeast (Saccharomyces cerevisiae) expressing human CB2, agonist, 30° C. for 24 hours, read-out: EC50 at the cloned human cannabinoid CB2 receptor
[2] = Emax relative to HU210, yeast expressing human CB2

T1 sequence (P34972 whole entry): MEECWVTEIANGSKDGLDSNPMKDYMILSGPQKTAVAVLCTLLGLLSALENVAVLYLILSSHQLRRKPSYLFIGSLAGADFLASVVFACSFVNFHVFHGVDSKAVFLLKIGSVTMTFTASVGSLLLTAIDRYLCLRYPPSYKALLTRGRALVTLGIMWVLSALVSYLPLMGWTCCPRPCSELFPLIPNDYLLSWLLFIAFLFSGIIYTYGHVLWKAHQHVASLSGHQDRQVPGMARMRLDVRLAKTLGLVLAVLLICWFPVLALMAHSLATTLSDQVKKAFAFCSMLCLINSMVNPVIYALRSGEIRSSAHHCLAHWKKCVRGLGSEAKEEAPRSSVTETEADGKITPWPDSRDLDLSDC

SMILES	pEC50	Emax [%]	pEC50 [1]	Emax [2] [%]
CCCNCc1cnc(Nc2cccc(Cl)c2)cc1C1CC1 [Example 55, (3-Chloro-phenyl)-(4-cyclopropyl-5-propylaminomethyl-pyridin-2-yl) amine dihydrochloride]	> 6.52	> 50		
CC(C)c1cc(Nc2cc(F)cc(F)c2)ncc1CNCC1CC1 [Example 31, {5-[(Cyclopropylmethyl-amino)-methyl]-4-isopropyl-pyridin-2-yl}-(3,5-difluoro-phenyl)-amine,compound with formic acid (1:1)]		> 50	6.00 to 6.52	
CC(C)c1cc(Nc2cccc(C(F)(F)F)c2F)ncc1C(C)NCC1CCC1 (stereo not drawn) [Example 56, {[1-Cyclobutylmethyl-amino)ethyl]-4-isopropyl-pyridin-2-yl}-(2-fluoro-3-trifluoromethyl-phenyl)-amine dihydrochloride]	> 6.52	> 50		
CC(C)CNCc1cnc(Nc2cccc(C(F)(F)F)c2F)cc1C(C)C [Example 46, (2-Fluoro-3-trifluoromethyl-phenyl)-5-[(isobutylamino-methyl)-4-isopropyl-pyridin-2-yl]-amine,compound with formic acid (1:1.13)]			> 6.52	> 50
Clc1cccc(Nc2cc(C3CC3)c(CNCC3CCCC3)cn2)c1 [Example 62, (3-Chloro-phenyl)-{5-[(cyclopentylmethyl-amino)-methyl]-4-cyclopropyl-pyridin-2-yl}-amine di-Hydrochloride]	> 6.52	> 50		
Clc1cccc(Nc2cc(C3CC3)c(CNC3CCC3)cn2)c1 [Example 1, (3-Chlorophenyl)-5-(cyclobutylaminomethyW cyclopropyl-pyridin-2-yl)-amine acetate]			> 6.52	> 50
Fc1ccc(CNCc2cnc(Nc3ccc(Cl)cc3Cl)cc2C(F)(F)F)cc1 [Example 54, (2,4-Dichlorophenyl)-{5-[(4-fluoro-benzylamino)-methyl]-4-trifluoromethyl-pyridin-2-yl}-amine]			6.00 to 6.52	
CC(C)c1cc(Nc2ccc(Cl)cc2F)ncc1CNCC1CCC1 [Example 25, (4-Chloro-2-fluoro-phenyl)-{5-[(cyclobutylmethyl-amino)-methyl]-4-isopropyl-pyridin-2-yl}-amine,compound with formic acid (1:1.67)]			6.00 to 6.52	> 50
CC(C)c1cc(N(C)c2cccc(Br)c2)ncc1CNCC1CCOCC1 [Example 49, (3-Bromo-phenyl)-(4-isopropyl-5-{[(tetrahydro-pyran-4-ylmethyl)-amino]-methyl}-pyridin-2-yl)-methyl-amine, compound withformic acid (1:1)]			> 6.52	> 50
Clc1cccc(Nc2cc(C3CC3)c(CNCC3CC3)cn2)c1 [Example 3, (3-Chlorophenyl)-(4-cyclopropyl-5-[(cyclopropylmethyl-amino)-methyl]-pyridin-2-yl}-amine acetate]	> 6.52	> 50		
CC(C)c1cc(Nc2ccc(F)c(Cl)c2)ncc1CNCC1CCC1 [Example 18, (3-Chloro-4-fluoro-phenyl)-{5-[(cyclobutyhnethyl-amino)-methyl]-4-isopropyl-pyridin-2-yl}-amine,compound with formic acid (1:1.3)]			> 6.52	> 50
Cc1ccc(Nc2cc(C(C)C)c(CNCC3CC3)cn2)cc1Cl [Example 33, (3-Chloro-4-methyl-phenyl)-{5-[(cyclopropylmethyl-amino)-methyl]-4-isopropyl-pyridin-2-yl}-amine, compound with formic acid(1:1)]	6.00 to 6.52	> 50		
CC(C)c1cc(Nc2cccc(Cl)c2)ncc1CN1CCCC1 [Example 58, (3-Chloro-phenyl)-(4-isopropyl-5-pyrrolidin-1-ylmethyl-pyridin-2-yl)-amine. dihydrochloride]	> 6.52	> 50		
CC(C)c1cc(Nc2cccc(C(F)(F)F)c2)ncc1CNCC1CC1 [Example 30, {5-[(Cyclopropylmethyl-amino)-methyl]-4-isopropyl-pyridin-2-yl}-(3-trifluoromethyl-phenyl)-amine,compound with formic acid (1:1)]	6.00 to 6.52	> 50		
CC(C)c1cc(Nc2cccc(Cl)c2)ncc1CNC(C)(C)C [Example 65, [5-(tert-Butylamino-methyl)isopropyl-pyridin-2-yl]-(3-chloro-phenyl)amine dihydrochloride]	6.00 to 6.52	> 50		
Cc1cc(Cl)ccc1Nc1cc(C(C)C)c(CNCC2CCC2)cn1 [Example 27, (4-Chloro-2-methyl-phenyl)-{5-[(cyclobutylmethyl-amino)-methyl)-4-isopropyl-pyridin-2-yl}-amine,compound with formic acid (1:1.33)]	6.00 to 6.52	> 50		
CC(C)c1cc(Nc2cc(F)cc(F)c2)ncc1CNCC1CCC1 [Example 21, {5-[(Cyclobutylmethyl-amino)-methyl]-4-isopropyl-pyridin-2-yl}-(3,5-difluoro-phenyl)-amine,compound with formic acid (1:1.3)]			> 6.52	> 50
CC(C)c1cc(Nc2cccc(Cl)c2)ncc1CNCC1CCCC1 [Example 50, (3-Chloro-phenyl)-{5-[(cyclopentylmethyl-amino)-methyl]-4-isopropyl-pyridin-2-yl}-amine, compound with formic acid(1:1)]	> 6.52	> 50		
CC(C)CNCc1cnc(Nc2cccc(Cl)c2)cc1C1CC1 [Example 5, (3-Chlorophenyl)-[4-cyclopropyl-5-(isobutylamino-methyl)-pyridin-2-yl]-amineacetate]	> 6.52	> 50		
CC(C)CNCc1cnc(Nc2ccc(Cl)c(Cl)c2)cc1C(C)C [Example 47, (3,4-Dichloro-phenyl)-[5-(isobutylamino-methyl)-4-isopropyl-pyridin-2-yl]-amine, compound withformic acid (1:1)]	> 6.52	> 50		
Clc1cccc(Nc2cc(C3CC3)c(CNC3CCOCC3)cn2)c1 [Example 11, (3-Chlorophenyl)-{4-cyclopropyl-5-[(tetrahydro-pyran-4-ylamino)-methyl]-pyridin-2-yl}-amineacetate]		> 50	6.00 to 6.52	
Clc1cccc(Nc2cc(C3CC3)c(CNCC3CCC3)cn2)c1 [Example 13, (3-Chloro-phenyl)-{5-[(cyclobutylmethyl-amino)-methyl]-4-cyclopropyl-pyridin-2-yl}-amine]	> 6.52	> 50		
Fc1ccc(CNCc2cnc(Nc3cccc(Cl)c3)cc2C2CC2)cc1 [Example 52, (3-Chloro-phenyl)-{4-cyclopropyl-5-[(4-fluorobenzylamino)methyl]-pyridin-2-yl}-amine dihydrochloride]	> 6.52	> 50		
CC(C)c1cc(Nc2ccc(Cl)cc2Cl)ncc1CNCC1CCC1 [Example 16, {5-[(Cyclobutylmethyl-amino)-methyl]-4-isopropyl-pyridin-2-yl}-(2,4-dichloro-phenyl)-amine,compound with formic acid (1:1)]	> 6.52	> 50		
CC(C)c1cc(Nc2ccc(F)c(F)c2)ncc1CNCC1CC1 [Example 37, {5-[(Cyclopropylmethyl-amino)-methyl]-4-isopropyl-pyridin-2-yl}-(3,4-difluoro-phenyl)-amine,compound with formic acid (1:1.15)]	6.00 to 6.52	> 50		
CC(C)CNCc1cnc(Nc2cccc(Br)c2)cc1C(C)C [Example 48, (3-Bromo-phenyl)-[5-(isobutylamino-methyl)-4-isopropyl-pyridin-2-yl]-amine, compound withformic acid (1:33)]			> 6.52	> 50
O=S1(=O)CCC(NCc2cnc(Nc3cccc(Cl)c3)cc2C2CC2)CC1 [Example 63, (3-Chloro-phenyl)-{4-cyclopropyl-5-[(1,1-dioxo-hexahydro-1l^6-thiopyran-4-ylamino)-methyl]-pyridin-2-yl}-amine di-hydrochloride]	> 6.52	> 50		
CC(C)CNCc1cnc(Nc2cccc(C(F)(F)F)c2)cc1C(C)C [Example 51, [5-(Isobutylamino-methyl)-4-isopropyl-pyridin-2-yl]-(3-trifluoromethyl-phenyl)-amine,compound with formic acid (1:1,25)]			> 6.52	> 50
Cc1cccc(Nc2cc(C(C)C)c(CNCC3CCC3)cn2)c1 [Example 12, {5-[(Cyclobutylmethyl-amino)methyl]-4-isopropyl-pyridin-2-yl}-m-tolyl-amine]	6.00 to 6.52	> 50		
